In the NIST ThermoML archive (doi:10.1016/j.jct.2010.11.012):
± gives the expanded uncertainty stated by the source.

Test: xn = mol fraction of the nth substance listed
Settings: Liquid, Bellows volumetry

CCCC [butane] + O=C=O
mass density [kg/m3]
Settings | 280 K | 300 K | 320 K | 340 K | 360 K | 380 K | 400 K | 420 K | 440 K
3000 kPa, x2 = 0.2322 | 630.31 ± 1.7 | – | – | – | – | – | – | – | –
5000 kPa, x2 = 0.2322 | 633.96 ± 1.7 | – | 575.82 ± 2 | – | – | – | – | – | –
5000 kPa, x2 = 0.4794 | 680.75 ± 1.6 | 639.52 ± 2.6 | – | – | – | – | – | – | –
5000 kPa, x2 = 0.715 | 743.91 ± 3.4 | – | – | – | – | – | – | – | –
10000 kPa, x2 = 0.2322 | 642.11 ± 1.7 | – | 589.62 ± 2.1 | – | 527.83 ± 2.8 | – | 446.86 ± 3.4 | – | –
10000 kPa, x2 = 0.4794 | 692.87 ± 2.1 | 657.02 ± 2.6 | 616.31 ± 3 | 569.54 ± 3.6 | 511.93 ± 4.4 | – | – | – | –
10000 kPa, x2 = 0.715 | 764.37 ± 3.4 | – | 634.09 ± 5.2 | – | – | – | – | – | –
20000 kPa, x2 = 0.2322 | 656.07 ± 1.7 | – | 611.12 ± 1.9 | – | 561.64 ± 2.2 | – | 507.96 ± 3 | – | 450.53 ± 2.6
20000 kPa, x2 = 0.4794 | 712.84 ± 2.1 | 682.52 ± 2.3 | 650.15 ± 2.6 | 616.43 ± 3.1 | 580.87 ± 3.8 | 542.77 ± 3.1 | 502.33 ± 3.5 | – | –
20000 kPa, x2 = 0.715 | 794.78 ± 3 | – | 700.42 ± 4.6 | – | 589.3 ± 4.7 | – | – | – | –
30000 kPa, x2 = 0.2322 | 667.86 ± 1.6 | – | 627.12 ± 1.7 | – | 584.81 ± 1.9 | – | 540.33 ± 2.1 | – | 495.88 ± 2.4
30000 kPa, x2 = 0.4794 | 728.81 ± 2 | 701.65 ± 2 | 674.04 ± 2.2 | 645.49 ± 2.4 | 616.95 ± 2.6 | 587.13 ± 2.9 | 556.87 ± 3.2 | 526.92 ± 2.7 | 497.45 ± 2.8
30000 kPa, x2 = 0.715 | 817.62 ± 2.6 | – | 738.09 ± 3.2 | – | 653.81 ± 4.3 | – | 566.01 ± 4 | – | –
40000 kPa, x2 = 0.2322 | 678.47 ± 1.6 | – | 640.44 ± 1.6 | – | 602.48 ± 1.7 | – | 563.25 ± 1.8 | – | 525.21 ± 1.9
40000 kPa, x2 = 0.4794 | 742.52 ± 1.9 | 717.56 ± 1.9 | 692.66 ± 2 | 667.35 ± 2.1 | 642.35 ± 2.2 | 616.84 ± 2.3 | 591.24 ± 2.4 | 566.28 ± 2.6 | 541.84 ± 2.7
40000 kPa, x2 = 0.715 | 836.27 ± 2.4 | – | 765.65 ± 2.8 | – | 694.03 ± 3.2 | – | 621.7 ± 3.8 | – | 554.08 ± 3.3
50000 kPa, x2 = 0.2322 | 687.34 ± 1.6 | – | 652.04 ± 1.6 | – | 616.98 ± 1.6 | – | 581.4 ± 1.6 | – | 547.37 ± 1.7
50000 kPa, x2 = 0.4794 | 754.67 ± 1.8 | 731.07 ± 1.8 | 708.18 ± 1.9 | 685.08 ± 1.9 | 662.49 ± 2 | 639.71 ± 2 | 616.85 ± 2.1 | 595.02 ± 2.2 | 573.48 ± 2.2
50000 kPa, x2 = 0.715 | 852 ± 2.3 | – | 787.84 ± 2.5 | – | 724.09 ± 2.8 | – | 660.78 ± 3 | – | 601.28 ± 3.2
60000 kPa, x2 = 0.2322 | 695.74 ± 1.8 | – | 662.33 ± 1.9 | – | 629.59 ± 2 | – | 596.43 ± 2.1 | – | 565.31 ± 2.2
60000 kPa, x2 = 0.4794 | 764.81 ± 2.2 | 742.9 ± 2.2 | 721.35 ± 2.3 | 700 ± 2.4 | 679.22 ± 2.5 | 658.27 ± 2.6 | 637.36 ± 2.7 | 617.32 ± 2.8 | 597.98 ± 2.9
60000 kPa, x2 = 0.715 | 866.13 ± 2.9 | – | 806.49 ± 3.2 | – | 747.95 ± 3.6 | – | 690.23 ± 4 | – | 637.06 ± 4.3
70000 kPa, x2 = 0.2322 | 703.24 ± 1.8 | – | 671.53 ± 1.8 | – | 640.64 ± 1.9 | – | 609.35 ± 1.9 | – | 580.32 ± 2
70000 kPa, x2 = 0.4794 | 774.33 ± 2.1 | 753.65 ± 2.2 | 733.06 ± 2.2 | 713.41 ± 2.3 | 693.75 ± 2.4 | 674.23 ± 2.4 | 654.78 ± 2.5 | 635.97 ± 2.5 | 618.26 ± 2.6
70000 kPa, x2 = 0.715 | 878.47 ± 2.8 | – | 822.63 ± 3 | – | 768.11 ± 3.3 | – | 714.95 ± 3.6 | – | 665.83 ± 3.8
80000 kPa, x2 = 0.2322 | 710.1 ± 1.7 | – | 679.91 ± 1.8 | – | 650.47 ± 1.8 | – | 620.59 ± 1.8 | – | 593.42 ± 1.9
80000 kPa, x2 = 0.4794 | 783.23 ± 2.1 | 763.35 ± 2.1 | 744.07 ± 2.2 | 724.94 ± 2.2 | 706.48 ± 2.2 | 687.97 ± 2.3 | 669.8 ± 2.3 | 652.07 ± 2.4 | 635.67 ± 2.5
80000 kPa, x2 = 0.715 | 890.87 ± 2.7 | – | 836.62 ± 2.9 | – | 785.74 ± 3 | – | 735.73 ± 3.2 | – | 689.85 ± 3.4
90000 kPa, x2 = 0.2322 | 716.71 ± 1.7 | – | 687.47 ± 1.7 | – | 659.56 ± 1.8 | – | 631 ± 1.8 | – | 605.1 ± 1.8
90000 kPa, x2 = 0.4794 | 791.49 ± 2 | 772.13 ± 2 | 753.75 ± 2.1 | 735.81 ± 2.1 | 717.86 ± 2.1 | 700.34 ± 2.2 | 682.95 ± 2.2 | 666.23 ± 2.2 | 651.02 ± 2.3
90000 kPa, x2 = 0.715 | 901.14 ± 2.6 | – | 849.86 ± 2.7 | – | 801.06 ± 2.9 | – | 753.9 ± 3 | – | 710.59 ± 3.1
100000 kPa, x2 = 0.2322 | 723.23 ± 3.3 | – | 694.73 ± 3.2 | – | 667.72 ± 3.1 | – | 640.36 ± 3 | – | 615.81 ± 3
100000 kPa, x2 = 0.4794 | 798.9 ± 3.6 | 780.58 ± 3.7 | 762.74 ± 3.5 | 745.33 ± 3.5 | 728.39 ± 3.5 | 711.49 ± 3.5 | 695.05 ± 3.4 | 678.91 ± 3.4 | 664.29 ± 3.3
100000 kPa, x2 = 0.715 | 910.69 ± 4.4 | – | 861.47 ± 4.2 | – | 815.17 ± 4.2 | – | 770.02 ± 4 | – | 728.79 ± 4
120000 kPa, x2 = 0.2322 | 734.32 ± 3.3 | – | 707.88 ± 3.2 | – | 683.01 ± 3.2 | – | 657.01 ± 3.1 | – | 634.32 ± 3
120000 kPa, x2 = 0.4794 | 812.9 ± 3.8 | 795.54 ± 3.7 | 778.9 ± 3.6 | 762.5 ± 3.6 | 747.06 ± 3.5 | 731.12 ± 3.5 | 716.06 ± 3.5 | 701.1 ± 3.4 | 687.84 ± 3.4
120000 kPa, x2 = 0.715 | 928.62 ± 4.4 | – | 882.45 ± 4.3 | – | 839.59 ± 4.2 | – | 797.97 ± 4.1 | – | 759.95 ± 4
140000 kPa, x2 = 0.2322 | 744.8 ± 3.4 | – | 719.63 ± 3.3 | – | 695.82 ± 3.2 | – | 671.62 ± 3.1 | – | 650.31 ± 3
140000 kPa, x2 = 0.4794 | 825.4 ± 3.8 | 809.12 ± 3.7 | 793 ± 3.7 | 777.74 ± 3.6 | 763.38 ± 3.6 | 748.2 ± 3.5 | 734.23 ± 3.5 | 719.99 ± 3.4 | 707.66 ± 3.4
140000 kPa, x2 = 0.715 | 944.48 ± 4.4 | – | 900.69 ± 4.3 | – | 861.07 ± 4.2 | – | 821.54 ± 4.1 | – | 786.09 ± 4
160000 kPa, x2 = 0.2322 | 754.11 ± 3.6 | – | 730.08 ± 3.5 | – | 707.43 ± 3.5 | – | 684.45 ± 3.5 | – | 664.25 ± 3.4
160000 kPa, x2 = 0.4794 | 836.77 ± 4.1 | 820.91 ± 4.1 | 805.87 ± 4.1 | 791.24 ± 4 | 777.86 ± 4 | 763.43 ± 4 | 749.98 ± 4 | 736.74 ± 4 | 724.96 ± 4
160000 kPa, x2 = 0.715 | 958.48 ± 5 | – | 917.22 ± 5 | – | 878.95 ± 4.9 | – | 841.99 ± 4.9 | – | 808.63 ± 4.9
180000 kPa, x2 = 0.2322 | 762.53 ± 3.6 | – | 739.97 ± 3.5 | – | 718.38 ± 3.5 | – | 696.37 ± 3.4 | – | 676.7 ± 3.4
180000 kPa, x2 = 0.4794 | 847.4 ± 4.1 | 832.12 ± 4.1 | 817.41 ± 4 | 803.57 ± 4 | 790.57 ± 4 | 776.93 ± 4 | 764.27 ± 4 | 751.63 ± 3.9 | 740.16 ± 3.9
180000 kPa, x2 = 0.715 | 971.36 ± 4.9 | – | 931.83 ± 4.9 | – | 895.71 ± 4.9 | – | 860.22 ± 4.8 | – | 828.38 ± 4.8
200000 kPa, x2 = 0.2322 | 770.7 ± 3.6 | – | 748.41 ± 3.6 | – | 727.81 ± 3.5 | – | 706.63 ± 3.5 | – | 688.15 ± 3.4
200000 kPa, x2 = 0.4794 | 856.48 ± 5.7 | 842.22 ± 4.1 | 828.26 ± 4.9 | 815.1 ± 4.1 | 802.28 ± 4.7 | 789.44 ± 4 | 777.01 ± 4.6 | 764.81 ± 4 | 754.38 ± 4.9
200000 kPa, x2 = 0.715 | 983.53 ± 5 | – | 945.52 ± 5 | – | 910.63 ± 4.9 | – | 876.67 ± 5 | – | 846.42 ± 4.8
